Experimental data published in ChEMBL document CHEMBL1139265, “Synthesis and biological evaluation of new glutamic acid-based inhibitors of MurD ligase” (Bioorg Med Chem Lett, 2009).

Tests used:
Escherichia coli [1] = assay: Inhibition of Escherichia coli MurD assessed as residual activity at 250 uM
Escherichia coli [2] = assay: Inhibition of Escherichia coli MurD assessed as residual activity at 500 uM
Escherichia coli [3] = assay: Inhibition of Escherichia coli MurE assessed as residual activity at 250 uM
Escherichia coli [4] = assay: Inhibition of Escherichia coli MurF assessed as residual activity at 250 uM
Escherichia coli [5] = assay: Inhibition of Escherichia coli MurC assessed as residual activity at 250 uM
[6] = Inhibition of Escherichia coli MurD assessed as residual activity

| Activity (Escherichia coli [1]) [%] | Activity (Escherichia coli [2]) [%] | Structure (SMILES) | other results |
| --- | --- | --- | --- |
| 88 |  | O=C(O)CC[C@H](NC(=O)c1ccc(CNc2ccc(/C=C3\SC(=O)NC3=O)cc2)cc1)C(=O)O |  |
| 85 |  | O=C(O)CC[C@@H](NC(=O)c1ccc(CNc2cccc(/C=C3\SC(=O)NC3=O)c2)cc1)C(=O)O |  |
| 87 |  | O=C(O)CC[C@H](NC(=O)c1ccc(CNc2cccc(/C=C3\SC(=O)NC3=O)c2)cc1)C(=O)O |  |
| 68 |  | O=C(O)CC[C@H](NC(=O)c1ccc(CNc2ccc(/C=C3\SC(=S)NC3=O)cc2)cc1)C(=O)O |  |
| 74 |  | O=C(O)CC[C@@H](NC(=O)c1ccc(CNc2ccc(/C=C3\SC(=S)NC3=O)cc2)cc1)C(=O)O |  |
| 70 |  | O=C(O)CC[C@@H](NC(=O)c1ccc(CNc2ccc(/C=C3\SC(=O)NC3=O)cc2)cc1)C(=O)O |  |
|  | 81 | O=C(O)CC[C@H](NC(=O)c1ccc(CNc2ccc3[nH]c(=O)[nH]c(=O)c3c2)cc1)C(=O)O |  |

Continued, compound first:

| Structure (SMILES) | Activity (Escherichia coli [1]) [%] | Activity (Escherichia coli [2]) [%] | other results |
| --- | --- | --- | --- |
| COC(=O)CC[C@H](NC(=O)c1ccc(NCc2cnc3[nH]c(N)nc(=O)c3n2)cc1)C(=O)OC |  | 96 |  |
| Nc1nc(N)c2cc(NCc3ccc(C(=O)N[C@@H](CCC(=O)O)C(=O)O)cc3)ccc2n1 |  | 80 |  |
| COC(=O)CC[C@H](NC(=O)c1ccc(CNc2ccc3[nH]c(=O)[nH]c(=O)c3c2)cc1)C(=O)OC |  | 92 |  |
| Nc1nc(N)c2cc(NCc3ccc(C(=O)N[C@H](CCC(=O)O)C(=O)O)cc3)ccc2n1 |  | 82 |  |
| Nc1nc(=O)c2nc(CNc3ccc(C(=O)N[C@@H](CCC(=O)O)C(=O)O)cc3)cnc2[nH]1 |  | 95 |  |
| O=C(O)CC[C@@H](NC(=O)c1ccc(CNc2ccc3[nH]c(=O)[nH]c(=O)c3c2)cc1)C(=O)O |  | 77 |  |
| O=C(O)CC[C@H](NC(=O)c1ccc(CNc2cccc(/C=C3\SC(=S)NC3=O)c2)cc1)C(=O)O |  |  | Activity (Escherichia coli [3]): 91%; Activity (Escherichia coli [4]): 77%; Activity (Escherichia coli [5]): 76%; IC50 [6]: 206 µM |
| COC(=O)CC[C@H](NC(=O)c1ccc(CNc2ccc3nc(N)nc(N)c3c2)cc1)C(=O)OC |  | 81 |  |
| COC(=O)CC[C@@H](NC(=O)c1ccc(CNc2ccc3[nH]c(=O)[nH]c(=O)c3c2)cc1)C(=O)OC |  | 91 |  |
| COC(=O)CC[C@@H](NC(=O)c1ccc(CNc2ccc3nc(N)nc(N)c3c2)cc1)C(=O)OC |  | 87 |  |
| O=C(O)CC[C@@H](NC(=O)c1ccc(CNc2cccc(/C=C3\SC(=S)NC3=O)c2)cc1)C(=O)O |  |  | Activity (Escherichia coli [3]): 96%; Activity (Escherichia coli [4]): 79%; Activity (Escherichia coli [5]): 78%; IC50 [6]: 174 µM |
